Source: US20240131168A1, “NAPHTHALENE RING-CONTAINING COMPOUND, PHARMACEUTICAL COMPOSITION CONTAINING SAME, AND USE THEREOF” (JIANGSU YAHONG MEDITECH CO., LTD., priority 2021, published 2024)

Columns and labels:
Type in all cases: cell-based
TamR-MCF-7 = assay: CellTiter-Glo cell proliferation inhibition, TamR-MCF-7; settings: 144 h; TamR-MCF-7 (CTG), 6 days, starting concentration 10 μM; read-out: IH % max (maximum inhibition percentage)
Method in brief: (§1)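 MCF-7, TamR-MCF-7, and CRISPR-edited MCF-7 ER D538G or Y537S cells were seeded at 1,000 or 2,000 cells/well in EMEM and cultured 24 h. They were then exposed to a 4-fold, 10-point series (top 10 µM before addition to wells) for 6 days or 72 h at 37 °C. CellTiter-Glo luminescence gave IC50 and maximum % inhibition.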

MCF-7 ER^D538G = assay: CellTiter-Glo cell proliferation inhibition, MCF-7 ER^D538G; settings: Homo sapiens, MCF7, 144 h, MCF-7 ER^D538G (CTG), 6 days, starting concentration 10 μM; for inhibition at up to 10 µM: read-out: IH % max (maximum inhibition percentage)
Method in brief: as §1

MCF-7 ER^Y537S = assay: CellTiter-Glo cell proliferation inhibition, MCF-7 ER^Y537S; settings: Homo sapiens, MCF7, 144 h; MCF-7 ER^Y537S (CTG), 6 days, starting concentration 10 μM; read-out: IH % max (maximum inhibition percentage)
Method in brief: as §1

MDA-MB-468 = assay: CellTiter-Glo cell proliferation inhibition, MDA-MB-468; settings: Homo sapiens, 144 h; MDA-MB-468 (CTG), 6 days, starting concentration 10 μM; read-out: IH % max (maximum inhibition percentage)
MDA-MB-231 = assay: CellTiter-Glo cell proliferation inhibition, MDA-MB-231; settings: Homo sapiens, 144 h; MDA-MB-231 (CTG), 6 days, starting concentration 10 μM; read-out: IH % max (maximum inhibition percentage)

IC50 (MCF-7 ER^D538G) [nM] | Compound | inhibition at up to 10 µM (TamR-MCF-7) [%] | inhibition at up to 10 µM (MCF-7 ER^D538G) [%] | inhibition at up to 10 µM (MCF-7 ER^Y537S) [%] | inhibition at up to 10 µM (MDA-MB-468) [%] | inhibition at up to 10 µM (MDA-MB-231) [%]
 | CCN(CCOc1ccc(Oc2c(-c3ccc(S(C)(=O)=O)cc3)ccc3cc(O)ccc23)cc1)CC(=O)N1CCN(c2ccc3c(c2)C(=O)N(C2CCC(=O)NC2=O)C3=O)CC1 (stereo not shown) [Compound D8, 2-(2,6-dioxopiperidin-3-yl)-5-(4-(N-ethyl-N-(2-(4-((6-hydroxy-2-(4-(methylsulfonyl)phenyl)naphthalen-1-yl)oxy)phenoxy)ethyl)glycyl)piperazin-1-yl)isoindoline-1,3-dione] | 35 | 44 | 33 | 68 | 
960 | C[C@@H]1CN(CCOc2ccc(Oc3c(-c4ccc(S(C)(=O)=O)cc4)ccc4cc(O)ccc34)cc2)[C@@H](C)CN1CCOCC(=O)N1CCN(c2ccc3c(c2)CN(C2CCC(=O)NC2=O)C3=O)CC1 (stereo partly drawn) [Compound D9, 3-(5-(4-(2-(2-((2R,5S)-4-(2-(4-((6-hydroxy-2-(4-(methylsulfonyl)phenyl)naphthalen-1-yl)oxy)phenoxy)ethyl)-2,5-dimethylpiperazin-1-yl)ethoxy)acetyl)piperazin-1-yl)-1-oxoisoindolin-2-yl)piperidine-2,6-dione] | 31 | 65 | 34 | 60 | 
788 | CS(=O)(=O)c1ccc(-c2ccc3cc(O)ccc3c2Oc2ccc(N3CCN(CCCCCOCC(=O)N4CCN(c5ccc6c(c5)CN(C5CCC(=O)NC5=O)C6=O)CC4)CC3)cc2)cc1 (stereo not shown) [Compound D11, 3-(5-(4-(2-((5-(4-(4-((6-hydroxy-2-(4-(methylsulfonyl)phenyl)naphthalen-1-yl)oxy)phenyl)piperazin-1-yl)pentyl)oxy)acetyl)piperazin-1-yl)-1-oxoisoindolin-2-yl)piperidine-2,6-dione] |  | 54 | 52 |  | 
 | C[C@@H]1CN(CCOCC(=O)N2CCN(c3ccc4c(c3)C(=O)N(C3CCC(=O)NC3=O)C4=O)CC2)[C@@H](C)CN1CCOc1ccc(Oc2c(-c3ccc(S(C)(=O)=O)cc3)ccc3cc(O)ccc23)cc1 (stereo partly drawn) [Compound D15, 2-(2,6-dioxopiperidin-3-yl)-5-(4-(2-(2-((2S,5R)-4-(2-(4-((6-hydroxy-2-(4-(methylsulfonyl)phenyl)naphthalen-1-yl)oxy)phenoxy)ethyl)-2,5-dimethylpiperazin-1-yl)ethoxy)acetyl)piperazin-1-yl)isoindoline-1,3-dione] |  | 48 | 46 |  | 
 | CS(=O)(=O)c1ccc(-c2ccc3cc(O)ccc3c2Oc2ccc(OCCOCCOCCOCCN3CCN(c4ccc5c(c4)C(=O)N(C4CCC(=O)NC4=O)C5=O)CC3)cc2)cc1 (stereo not shown) [Compound D19] | 39 | 73 |  |  | 
 | CS(=O)(=O)c1ccc(-c2ccc3cc(O)ccc3c2Oc2ccc(OCCOCCOCCOCCN3CCN(c4ccc5c(c4)C(=O)N(C4CCC(=O)NC4=O)C5)CC3)cc2)cc1 (stereo not shown) [Compound D21] |  | 55 |  |  | 
 | CS(=O)(=O)c1ccc(-c2ccc3cc(O)ccc3c2Oc2ccc(OCCOCCOCCN3CCN(c4ccc5c(c4)C(=O)N(C4CCC(=O)NC4=O)C5)CC3)cc2)cc1 (stereo not shown) [Compound D22, 3-(6-(4-(2-(2-(2-(4-((6-hydroxy-2-(4-(methylsulfonyl)phenyl)naphthalen-1-yl)oxy)phenoxy)ethoxy)ethoxy)ethyl)piperazin-1-yl)-1-oxoisoindolin-2-yl)piperidine-2,6-dione] | 33 | 61 |  |  | 36
568 | CCN(CCOCCOCCN1CCN(c2ccc3c(c2)C(=O)N(C2CCC(=O)NC2=O)C3=O)CC1)CCOc1ccc(Oc2c(-c3ccc(S(C)(=O)=O)cc3)ccc3cc(O)ccc23)cc1 (stereo not shown) [Compound D28, 2-(2,6-dioxopiperidin-3-yl)-5-(4-(2-(2-(2-(ethyl(2-(4-((6-hydroxy-2-(4-(methylsulfonyl)phenyl)naphthalen-1-yl)oxy)phenoxy)ethyl)amino)ethoxy)ethoxy)ethyl)piperazin-1-yl)isoindoline-1,3-dione] | 42 | 81 | 49 |  | 68
 | CS(=O)(=O)c1ccc(-c2ccc3cc(O)ccc3c2Oc2ccc(OCCOCCOCCN3CCN(c4ccc5c(c4)CN(C4CCC(=O)NC4=O)C5=O)CC3)cc2)cc1 (stereo not shown) [Compound D30] | 30 | 65 |  |  | 
 | CCN(CCCCCN(C)CC(=O)N1CCN(c2ccc3c(c2)C(=O)N(C2CCC(=O)NC2=O)C3=O)CC1)CCOc1ccc(Oc2c(-c3ccc(S(C)(=O)=O)cc3)ccc3cc(O)ccc23)cc1 (stereo not shown) [Compound D31, 2-(2,6-dioxopiperidin-3-yl)-5-(4-(N-(5-(ethyl(2-(4-((6-hydroxy-2-(4-(methylsulfonyl))phenyl)naphthalen-1-yl)oxy)phenoxy)ethyl)aminopentyl)-N-methylglycyl)piperazin-1-yl)isoindoline-1,3-dione] |  | 90 | 73 | 100 | 56
182 | CCN(CCOc1ccc(Oc2c(-c3ccc(S(C)(=O)=O)cc3)ccc3cc(O)ccc23)cc1)C(=O)c1ccc(CCC2CCN(C3CCN(c4ccc5c(c4)C(=O)N(C4CCC(=O)NC4=O)C5=O)CC3)CC2)cc1 (stereo not shown) [Compound D34, 4-(2-(1′-(2-(2,6-dioxopiperidin-3-yl)-1,3-dioxoisoindolin-5-yl)-[1,4′-bipiperidin]-4-yl)ethyl)-N-ethyl-N-(2-(4-((6-hydroxy-2-(4-(methylsulfonyl)phenyl)naphthalen-1-yl)oxy)phenoxy)ethyl)benzamide] | 41 | 82 | 60 |  | 37
 | CS(=O)(=O)c1ccc(-c2ccc3cc(O)ccc3c2Oc2ccc(OCCOCCOCCOCCOc3ccc4c(c3)C(=O)N(C3CCC(=O)NC3=O)C4)cc2)cc1 (stereo not shown) [Compound D35, 3-(6-(2-(2-(2-(2-(4-((6-hydroxy-2-(4-(methylsulfonyl)phenyl)naphthalen-1-yl)oxy)phenoxy)ethoxy)ethoxy)ethoxy)ethoxy)-1-oxoisoindolin-2-yl)piperidine-2,6-dione] |  | 39 |  |  | 
